# Laboratory results: patent US9522908B2, “Ezrin inhibitors and methods of making and using” (Georgetown University, priority 2010, dated 2016)
# How the values were obtained:
# actin = assay: SPR binding to actin (negative control); conditions: data not shown
# [1] = target: T1, ezrin T567 phosphorylation by PKC,τ (Mus musculus, UniProt P26040); assay: In vitro kinase assay: recombinant ezrin T567 phosphorylation by PKC,τ; type: biochemical; conditions: phosphospecific antibody immunoblot densitometry
# T1 construct: Recombinant full length ezrin was prepared to a concentration of 100 μg/ml; host or cells: E. coli M15pREP4 (ezrin)
# T1 sequence (P26040 whole entry): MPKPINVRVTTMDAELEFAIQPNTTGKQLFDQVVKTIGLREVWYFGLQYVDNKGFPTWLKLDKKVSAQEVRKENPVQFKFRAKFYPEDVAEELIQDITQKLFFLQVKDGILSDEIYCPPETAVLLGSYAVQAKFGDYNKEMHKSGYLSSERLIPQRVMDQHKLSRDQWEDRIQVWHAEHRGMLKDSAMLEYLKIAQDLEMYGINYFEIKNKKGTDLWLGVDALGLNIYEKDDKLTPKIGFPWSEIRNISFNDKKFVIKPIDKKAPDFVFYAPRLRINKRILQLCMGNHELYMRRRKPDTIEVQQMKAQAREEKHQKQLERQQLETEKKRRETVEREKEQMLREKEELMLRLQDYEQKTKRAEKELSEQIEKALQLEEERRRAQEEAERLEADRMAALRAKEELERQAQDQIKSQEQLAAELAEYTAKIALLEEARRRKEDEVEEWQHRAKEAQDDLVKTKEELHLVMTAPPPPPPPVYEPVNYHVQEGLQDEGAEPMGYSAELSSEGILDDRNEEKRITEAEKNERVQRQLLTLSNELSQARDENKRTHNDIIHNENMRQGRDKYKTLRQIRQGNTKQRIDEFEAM
# Method: FIG. 2 illustrates NSC305787 and NSC668394 inhibit ezrin T567 phosphorylation. (A) K7M2 metastatic OS cell line was treated with NSC305787 (10 μM) and NSC668394 (10 μM) for 6 hours. […] The effect of NSC305787 and NSC668394 on recombinant ezrin phosphorylation by recombinant PKC, was tested in an in vitro kinase assay. Phoshorylation of ezrin was detected by a phosphospecific antibody following PAGE and immunoblotting. Experiments were repeated three times and densitometric analysis of bands was used for calculation of % inhibition (graphs). Error bars represents s.d. from three independent experiments. Kinase activities of PKC,τ, PKC,α and PKC,γ were also evaluated with a nonspecific substrate in the presence of NSC305787 and NSC668394 by a radioactive in vitro kinase assay. Data analysis was done by using a sigmoidal dose-response equation where log EC50 for each curve with the ezrin substrate and the non-specific substrate were compared to each other (P=0.0118 for NSC305787 and P=0.0084 for NSC668394).
# 500 ng of recombinant ezrin protein in kinase assay mix (200 μM ATP) was incubated with the compounds at 1-100 μM concentrations for 15 minutes on ice, then 50 ng PKC,τ (Millipore, Billerica, Mass.) was added. Reaction was performed at 30° C. for 30 min and stopped by adding 2× sample buffer. […]
# MNNG, human OS cells = assay: In vivo experimental lung metastasis model, ezrin independent MNNG cells; design: species or system mice
# Method: FIG. 6 illustrates NSC305787 and NSC668394 inhibit in vivo OS metastatic growth in lungs. (A) K7M2 metastatic OS tumor cells (1×10^6) were injected via tail vein. Vehicle (1% DMSO), NSC305787 (240 μg/kg) and NSC668394 (226 μg/kg) were injected 5 days a week intraperitoneally. Kaplan-Meier survival curves show percent survival for NSC305787 and NSC668394 treatment over time. Median survival of vehicle, NSC305787 and NSC668394 treated K7M2 cells were 28.5, 50, and 49 days after tumor cell injection. […] (B) Fluorescence pictures of whole lungs are given. […] (C) GFP expressing ezrin independent MNNG, human OS cells were injected to mice and treated with vehicle (1% DMSO), NSC305787 (240 μg/kg) and NSC668394 (226 μg/kg). Survival of each group is not different probably because MNNG is an ezrin independent cell line. Median survival of vehicle, NSC305787 and NSC668394 treated MNNG cells were 50.5, 49, and 48.5 days after tumor cell injection. (D) Fluorescent images of the lung tissues of this group are given.
# GFP expressing K7M2 or MNNG tumor cells (1×10^6) were delivered by tail vein to nude mice. One day after injection, vehicle, NSC305787 (240 μg/kg/inj) and […] (226 μg/kg/inj) were injected 5 days a week intraperitoneally.
# [2] = tested on: GFP expressing K7M2 OS cells; assay: Pulmonary metastasis assay (PuMA), lung organ culture; design: species or system mice; conditions: 10 μM
# Method: FIG. 5 illustrates NSC305787 and NSC668394 inhibit OS metastatic growth in lung organ culture. GFP expressing K7M2 OS cells (2×10^5) were injected to tail vein of female BALB/c mice. Within 15 min of tumor cells injection, mice were euthanized and lungs were injected with a mixed agarose/medium solution and then were removed. Complete transverse sections (1-2 mm in thickness) were made from each lobe and 4-5 lung sections were placed on a single 1.5×0.7 cm sterile Gelfoam section. Lung sections were incubated at 37° C. in humidified conditions of 5% CO2. Fresh medium or small molecules (10 μM) were replaced every other day. (A) Quantitation of the fluorescence signal from NSC305787 (10 μM) and NSC668394 (10 μM) treated organ cultures over time. Metastatic burden was quantified by measuring the fluorescent area of metastatic cells in each lung section at each time point and was expressed as mean fluorescent area (mean fluorescent area of each lung section over 4 lung sections). Mean fluorescent area was normalized to 100 pixels for day 0 to allow quantitative evaluation of metastatic progression over time. Data are represented as mean .s.d. from three independent experiments. (B) Fluorescence pictures of a representative culture treated with 10 μM NSC305787 and 10 μM NSC668394 are given on the right panel. […]
# [3] = target: T2, ezrin / poly-A-binding protein 1 (PABP1) interaction (Mus musculus, UniProt P26040); assay: Ezrin-PABP1 interaction by immunoprecipitation and western blot; type: cell-based; conditions: cells treated 60 min prior to immunoprecipitation
# T2 construct: endogenous in cells; host or cells: K7M2 osteosarcoma cells
# T2 sequence (P26040 whole entry): as above
# Method: (A) Total cell lysates from K7M2 osteosarcoma cells were immunoprecipitated by using an anti-ezrin antibody. As a control, non-specific total IgG was used. Immunoprecipitates were run on SDS-PAGE and Western Blot was performed using anti-ezrin (lower panel) and anti-PABP1 (upper panel) antibodies. PABP1 protein was detected in immunoprecipitates of ezrin, suggetsing that these two proteins interact with each other in a protein complex. (B) Ezrin-PABP1 interaction was also evaluated in an ELISA experiment where recombinant ezrin protein was immmobilized on surface and total cell lysates from osteosarcoma cells were applied on top. Amount of PABP1 binding to ezrin on the surface was detected by a anti-PABP1 primary antibody followed by enzyme linked secondary antibody. (C) Immunoprecipitation and western experiment was prepared as described in panel A. Cells were treated with NSC305787 (compound 8) and NSC668394 (compound 16) for 60 min prior to immunoprecipitation. Both NSC305787 and NSC668394 inhibited interaction of PABP1 with ezrin
smiles,measurement,setting,value
OC(c1cc(C23CC4CC(CC(C4)C2)C3)nc2c(Cl)cc(Cl)cc12)C1CCCCN1 (stereo not drawn) [NSC305787],Kd,actin,91.4 µM
same,IC50,[1],5.5 µM
same,number of GFP expressing metastatic foci in lung tissues,"MNNG, human OS cells; MNNG cells",not a significant difference
same,median survival after tumor cell injection,"MNNG, human OS cells; MNNG cells by tail vein, i.p. 5 days a week, vehicle 50.5 days",49 days
same,lung metastasis of K7M2 cells in lung organ culture (GFP fluorescence),[2],significantly inhibited
same,interaction of PABP1 with ezrin,[3],inhibited
